# Several values for one entry are separate records, joined by “and”; a condition that tells them apart may be missing. Equal values may be shown once. Inconclusive results and toxic doses are left out.
# Test system: P388 leukemia ip, CD2F1 mice, survival T/C
# Assay: NCI In Vivo Anticancer Drug Screen. Data for tumor model P388 Leukemia (intraperitoneal) in CD2F1 (CDF1) mice
# Settings: endpoint: median survival time, higher = longer survival
# Outline: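 Mice carrying the transplanted tumor received test compound or vehicle. Survival was recorded in each group, and the value is the treated-group measurement divided by that of the vehicle-treated control group.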
# [1] = dose: 50.0 mg/kg/injection, schedule: Q04DX002 (ip), vehicle: saline with Tween-80
# [2] = dose: 50.0 mg/kg/injection, schedule: Q01DX005 (ip), vehicle: saline with Tween-80
# [3] = dose: 100.0 mg/kg/injection, schedule: Q01DX005 (ip), vehicle: saline with Tween-80
# [4] = dose: 200.0 mg/kg/injection, schedule: Q01DX005 (ip), vehicle: saline with Tween-80
# [5] = dose: 100.0 mg/kg/injection, schedule: Q01DX001 (ip), vehicle: saline with Tween-80
# [6] = dose: 200.0 mg/kg/injection, schedule: Q01DX001 (ip), vehicle: saline with Tween-80
# [7] = dose: 400.0 mg/kg/injection, schedule: Q01DX001 (ip), vehicle: saline with Tween-80
smiles,measurement,setting,value
Cc1cc(NCCN(C(C)C)C(C)C)nc(Nc2nc3cc(Cl)c(Cl)cc3[nH]2)n1,T/C,"dose: 6.25 mg/kg/injection, schedule: Q01DX009 (ip), vehicle: saline sonified",100 % of control
same,T/C,"dose: 12.5 mg/kg/injection, schedule: Q01DX009 (ip), vehicle: saline sonified",100 % of control
CCOP(=O)(O)OCC,T/C,"dose: 100.0 mg/kg/injection, schedule: Q04DX003 (ip), vehicle: Klucel (hydroxypropylcellulose) (HPC)",93 % of control
same,T/C,"dose: 200.0 mg/kg/injection, schedule: Q04DX003 (ip), vehicle: Klucel (hydroxypropylcellulose) (HPC)",89 % of control
same,T/C,"dose: 400.0 mg/kg/injection, schedule: Q04DX003 (ip), vehicle: Klucel (hydroxypropylcellulose) (HPC)",96 % of control
O=c1c(-c2ccccc2)cc2c(-c3ccccc3)oc(-c3ccccc3)c2cc1-c1ccccc1,T/C,[1],90 % of control
same,T/C,"dose: 100.0 mg/kg/injection, schedule: Q04DX002 (ip), vehicle: saline with Tween-80",94 % of control
same,T/C,"dose: 200.0 mg/kg/injection, schedule: Q04DX002 (ip), vehicle: saline with Tween-80",92 % of control
O=S(=O)(O)c1ccc(OCCCCCCCCOc2ccc(S(=O)(=O)O)cc2)cc1,T/C,"dose: 50.0 mg/kg/injection, schedule: Q01DX005 (ip), vehicle: saline",112 % of control
same,T/C,"dose: 100.0 mg/kg/injection, schedule: Q01DX005 (ip), vehicle: saline",109 % of control
same,T/C,"dose: 200.0 mg/kg/injection, schedule: Q01DX005 (ip), vehicle: saline",100 % of control
C=CCC(OC(=O)c1ccc(Br)cc1)C1(C)OC1C(C)C1CC(O)(C(OC)OC)NC(=O)O1 (configuration not stated),T/C,"dose: 0.25 mg/kg/injection, schedule: Q01DX009 (ip), vehicle: saline + alcohol",108 % of control
same,T/C,"dose: 0.5 mg/kg/injection, schedule: Q01DX009 (ip), vehicle: saline + alcohol",107 % of control
same,T/C,"dose: 1.0 mg/kg/injection, schedule: Q01DX009 (ip), vehicle: saline + alcohol",115 % of control
CN=C1N=C(c2ccc(C(C)(C)C)cc2)C(O)(c2ccc(C(C)(C)C)cc2)N1 (configuration not stated),T/C,"dose: 25.0 mg/kg/injection, schedule: Q04DX002 (ip), vehicle: saline with Tween-80",104 % of control
same,T/C,[1],117 % of control
CCNc1ccc2ccccc2c1N=Nc1ccc(N=Nc2ccccc2)cc1,T/C,"dose: 25.0 mg/kg/injection, schedule: Q01DX009 (ip), vehicle: saline with Tween-80",90 % of control
same,T/C,"dose: 50.0 mg/kg/injection, schedule: Q01DX009 (ip), vehicle: saline with Tween-80",90 % of control and 94 % of control
same,T/C,"dose: 100.0 mg/kg/injection, schedule: Q01DX009 (ip), vehicle: saline with Tween-80",95 % of control
same,T/C,"dose: 200.0 mg/kg/injection, schedule: Q01DX009 (ip), vehicle: saline with Tween-80",100 % of control
Cc1noc(-c2ccccc2)c1N=Nc1ccccc1,T/C,"dose: 100.0 mg/kg/injection, schedule: Q01DX001 (ip), vehicle: Klucel (hydroxypropylcellulose) (HPC)",99 % of control
same,T/C,"dose: 200.0 mg/kg/injection, schedule: Q01DX001 (ip), vehicle: Klucel (hydroxypropylcellulose) (HPC)",105 % of control
same,T/C,"dose: 400.0 mg/kg/injection, schedule: Q01DX001 (ip), vehicle: Klucel (hydroxypropylcellulose) (HPC)",93 % of control
O=C1OC(=O)c2cc([N+](=O)[O-])cc3cccc1c23,T/C,[2],108 % of control and 110 % of control (2×)
same,T/C,[3],100 % of control and 103 % of control and 111 % of control
same,T/C,[4],102 % of control and 110 % of control and 123 % of control
same,T/C,"dose: 400.0 mg/kg/injection, schedule: Q01DX005 (ip), vehicle: saline with Tween-80",119 % of control
CC1=C(C)C(C)(C)OC1=O,T/C,[5],100 % of control
same,T/C,[6],100 % of control
same,T/C,[7],104 % of control
N#Cc1c(-c2ccc(Br)cc2)c(-c2ccc(Br)cc2)n[nH]c1=O,T/C,[5],91 % of control
same,T/C,[6],95 % of control
same,T/C,[7],95 % of control
O=S(=O)(O)CC[S][Sn]([S]CCS(=O)(=O)O)([c]1ccccc1)[c]1ccccc1,T/C,"dose: 3.75 mg/kg/injection, schedule: Q01DX005 (ip), vehicle: Klucel (hydroxypropylcellulose) (HPC)",153 % of control
CN1C(=O)N(C)C(=O)C(Nc2ccc([N+](=O)[O-])cc2)(SCCO)C1=O,T/C,[2],100 % of control
same,T/C,[3],104 % of control
same,T/C,[4],104 % of control

# Reference: PubChem BioAssay AID330 (DTP/NCI, 2004)
